# Source: patent US20030086820A1 (priority 2001, published 2003)
# Read-outs that look alike come from different tables or passages of the source.
# Columns and labels:
# [1] = system: ileal fluid dependent organism (IFDO)
# BSA protein = BSA protein (Bos taurus, UniProt P02769)
# prion protein (PRP^SC) = prion protein (PRP^SC) (Homo sapiens, UniProt P04156)
# Chain of BSA protein (P02769 25-607 limits assumed): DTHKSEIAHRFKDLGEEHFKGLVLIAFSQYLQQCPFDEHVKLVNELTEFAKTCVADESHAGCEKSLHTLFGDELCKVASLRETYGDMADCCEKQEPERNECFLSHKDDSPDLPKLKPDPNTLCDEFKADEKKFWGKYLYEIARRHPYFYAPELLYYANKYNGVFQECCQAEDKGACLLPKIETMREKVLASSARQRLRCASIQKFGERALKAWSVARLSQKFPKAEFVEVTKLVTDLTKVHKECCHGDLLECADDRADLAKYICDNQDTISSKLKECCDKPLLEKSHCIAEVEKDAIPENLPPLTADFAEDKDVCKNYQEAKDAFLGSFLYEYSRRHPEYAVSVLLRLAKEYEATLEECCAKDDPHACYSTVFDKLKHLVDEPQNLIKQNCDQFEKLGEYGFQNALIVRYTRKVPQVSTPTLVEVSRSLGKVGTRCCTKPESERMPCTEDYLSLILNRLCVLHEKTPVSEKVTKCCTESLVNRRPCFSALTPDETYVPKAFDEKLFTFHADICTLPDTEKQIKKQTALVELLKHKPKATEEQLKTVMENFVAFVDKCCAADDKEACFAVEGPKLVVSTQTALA
compound,measurement,setting,value
"OO [Vapor Hydrogen Peroxide, hydrogen peroxide]",log reduction in IFDO,[1],six
same,number of colonies developed on the vacuum treated samples,[1],less than 1 log
same,deactivating the prion model (IFDO): vacuum pulses versus atmospheric conditions,"[1]; FIG. 9, atmospheric 1.5 mg/l 30° C. or 3 mg/l 40° C., 15 minutes",more effective
same,log reduction in IFDO,IFDO organisms,six
same,number of colonies developed from IFDO remaining on the vacuum treated samples,IFDO organisms,less than 1 log
same,breakdown of protein (gel electrophoresis),BSA protein,effectively destroys proteins
same,PRP^SC Detected,"prion protein (PRP^SC); 25° C., 1.7 mg/L, 3 hours exposure, atmospheric pressure",No
same,PRP^SC Detected,"prion protein (PRP^SC); 30° C., 2.2 mg/L, vacuum conditions, six pulses of vapor",No
same,PRP^SC Detected,"prion protein (PRP^SC); 50° C., 7.0 mg/L, vacuum conditions, three pulses of vapor",No
same,destruction of the harmful form of the prion protein,"prion protein (PRP^SC); summary of Table 7, no precleaning step",effective at destruction of the harmful form of the prion protein
